# Patent US11066405B2, “Bicyclic compounds and their use in the treatment of cancer” (Tempest Therapeutics, Inc., priority 2017, dated 2021)
# Molecular target: T1, EP4 (Homo sapiens, UniProt P35408)
# T1 construct: host or cells: HEK293, stably transfected; also expresses a promiscuous G protein and a clytin variant
# Test: EP4 Ca2+-flux assay (functional calcium flux assay, stably transfected HEK293 cells)
# Format: cell-based
# Conditions: HEK293 cells stably transfected with EP4; ligand PGE2 10 nM; luminescence readout
# Method: The compounds in the present disclosure were tested in a functional calcium flux assay using stably transfected HEK293 cells. Cells transfected with EP1, EP2, EP3 and EP4 were purchased from Eurofins Discovery Services (St. Charles, Mo.). Each receptor subtype has an additional promiscuous G protein added in order to couple to the calcium signaling pathway. The parental cell line used also expresses a novel variant of clytin, a calcium-activated photo-protein, to enable sensitive luminescent detection.
# Cells were plated at 50,000 cells per well in black, clear bottom 96-well plates. The plated cells were allowed to sit at room temperature for 30 min prior to transferring to a humidified, 37° C., 5% CO2 incubator for 18-24 h. Assay buffer (HBSS with 20 mM HEPES) and loading buffer (assay buffer plus 10 μM Coelenterazine) were prepared on the day of the assay. Assays were performed by aspirating media from the assay plate and washing once with assay buffer, then replacing with loading buffer and allowing the cells to incubate for 1.5 h at room temperature. Compounds were prepared in assay buffer at a 3× final concentration in non-binding plates. Compounds were added to the cell plates and incubated for 30 min at room temperature. The prostanoid receptor ligand PGE2 was prepared at a 4× dilution ratio for a final concentration of 10 nM. Plates were run on a Flexstation™ using a 100 ms integration luminescence protocol for a total of 60 sec with ligand addition at 15 sec. Data were obtained from relative light units as measured by area under the curve.
# T1 sequence (P35408 whole entry): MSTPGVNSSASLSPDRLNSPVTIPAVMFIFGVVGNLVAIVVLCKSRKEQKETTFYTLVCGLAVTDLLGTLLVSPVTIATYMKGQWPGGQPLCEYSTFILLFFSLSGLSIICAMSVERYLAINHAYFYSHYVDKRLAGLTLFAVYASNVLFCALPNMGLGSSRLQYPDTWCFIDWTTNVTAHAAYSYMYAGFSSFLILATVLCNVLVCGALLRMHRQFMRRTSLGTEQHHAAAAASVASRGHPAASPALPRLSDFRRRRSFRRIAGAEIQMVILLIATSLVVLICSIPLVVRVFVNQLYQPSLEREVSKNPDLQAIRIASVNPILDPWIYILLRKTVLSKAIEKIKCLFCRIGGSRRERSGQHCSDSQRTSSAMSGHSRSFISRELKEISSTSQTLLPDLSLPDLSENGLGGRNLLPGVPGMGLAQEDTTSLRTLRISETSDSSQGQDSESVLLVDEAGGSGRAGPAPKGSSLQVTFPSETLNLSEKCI
row,SMILES,IC50
1,"O=C(O)CC12CC(NC(=O)c3ccnc4ccn(Cc5ccc(C(F)(F)F)cc5)c34)(C1)C2 [Example 3, 2-(3-(1-(4-(trifluoromethyl)benzyl)-1H-pyrrolo[3,2-b]pyridine-7-carboxamido)bicyclo[1.1.11]pentan-1-yl)acetic Acid]",160 nM
2,"O=C(O)CC12CC(NC(=O)c3nccc4ccn(Cc5ccc(C(F)(F)F)cc5)c34)(C1)C2 [Example 5, 2-(3-(1-(4-(trifluoromethyl)benzyl)-1H-pyrrolo[2,3-c]pyridine-7-carboxamido)bicyclo[1.1.1]pentan-1-yl)acetic Acid]",930 nM
3,"O=C(O)CC12CC(NC(=O)c3cccc4cnn(Cc5ccc(C(F)(F)F)cc5)c34)(C1)C2 [Example 6, 2-(3-(1-(4-(trifluoromethyl)benzyl)-1H-indazole-7-carboxamido)bicyclo[1.1.1]pentan-1-yl)acetic Acid]",19 nM
4,"[2H]C([2H])(c1ccc(C(F)(F)F)cc1)n1ccc2cccc(C(=O)NC34CC(CC(=O)O)(C3)C4)c21 [Example 7, 2-(3-(1-((4-(trifluoromethyl)phenyl)methyl-d2)-1H-indole-7-carboxamido)bicyclo[1.1.1]pentan-1-yl)acetic Acid]",2 nM
5,"O=C(CC12CC(NC(=O)c3cccc4ccn(Cc5ccc(C(F)(F)F)cc5)c34)(C1)C2)NS(=O)(=O)c1ccccc1 [Example 16, N-(3-(2-oxo-2-(phenylsulfonamido)ethyl)bicyclo[1.1.1]pentan-1-yl)-1-(4-(trifluoromethyl)benzyl)-1H-indole-7-carboxamide]",140 nM
6,"O=C(NCC12CC(NC(=O)c3cccc4ccn(Cc5ccc(C(F)(F)F)cc5)c34)(C1)C2)NS(=O)(=O)c1ccccc1 [Example 17, N-(3-((3-(phenylsulfonyl)ureido)methyl)bicyclo[1.1.1]pentan-1-yl)-1-(4-(trifluoromethyl)benzyl)-1H-indole-7-carboxamide]",130 nM
7,"O=C(NC12CC(Cc3nnn[nH]3)(C1)C2)c1cccc2ccn(Cc3ccc(C(F)(F)F)cc3)c12 [Example 18, N-(3-((1H-tetrazol-5-yl)methyl)bicyclo[1.1.1]pentan-1-yl)-1-(4-(trifluoromethyl)benzyl)-1H-indole-7-carboxamide]",1.5 nM
8,"O=C(O)CC12CCC(NC(=O)c3cccc4ccn(Cc5ccc(C(F)(F)F)cc5)c34)(C1)C2 [Example 19, 2-(4-(1-(4-(trifluoromethyl)benzyl)-1H-indole-7-carboxamido)bicyclo[2.1.1]hexan-1-yl)acetic Acid]",9.1 nM
9,"O=C(O)CC12CCC(NC(=O)c3ccc(F)c4ccn(Cc5ccc(C(F)(F)F)cc5)c34)(C1)C2 [Example 28, 2-(4-(4-fluoro-1-(4-(trifluoromethyl)benzyl)-1H-indole-7-carboxamido)bicyclohexan-1-yl)acetic Acid]",0.6 nM
10,"O=C(O)CC12CCC(NC(=O)c3cccc4ccn(Cc5ccc(S(F)(F)(F)(F)F)cc5)c34)(C1)C2 [Example 29, 2-(4-(1-((4-(pentafluorothiol)phenyl)methyl)-1H-indole-7-carboxamido)bicyclohexan-1-yl)acetic Acid]",1.2 nM
11,"O=C(O)C[C@]12C[C@](NC(=O)c3ccc(F)c4ccn(Cc5ccc(C(F)F)cc5)c34)(C1)C2 [Example 32, 2-(3-(1-(4-(difluoromethyl)benzyl)-4-fluoro-1H-indole-7-carboxamido)bicyclopentan-1-yl)acetic Acid]",0.1 nM
12,"O=C(O)C[C@]12C[C@](NC(=O)c3cc(F)cc4ccn(Cc5ccc(C(F)(F)F)cc5)c34)(C1)C2 [Example 33, 2-(3-(5-fluoro-1-(4-(trifluoromethyl)benzyl)-1H-indole-7-carboxamido)bicyclopentan-1-yl)acetic Acid]",0.1 nM
13,"O=C(O)C[C@]12C[C@](NC(=O)c3cccc4ccn(Cc5ccc(-c6ccccc6)cc5)c34)(C1)C2 [Example 34, 2-(3-(1-([1,1′-biphenyl]-4-ylmethyl)-1H-indole-7-carboxamido)bicyclo[1.1.1]pentan-1-yl)acetic Acid]",0.22 nM
14,"O=C(O)C[C@]12C[C@](NC(=O)c3ccc(F)c4ccn(Cc5ccc(-c6ccccc6)cc5)c34)(C1)C2 [Example 35, 2-(3-(1-([1,1′-biphenyl]-4-ylmethyl)-4-fluoro-1H-indole-7-carboxamido)bicyclo[1.1.11]pentan-1-yl)acetic Acid]",0.28 nM
15,"O=C(O)C[C@]12C[C@](NC(=O)c3cccc4cnn(Cc5ccc(-c6ccccc6)cc5)c34)(C1)C2 [Example 36, 2-(3-(1-([1,1′-biphenyl]-4-ylmethyl)-1H-indazole-7-carboxamido)bicyclo[1.1.1]pentan-1-yl)acetic Acid]",0.32 nM
16,"O=C(O)C[C@]12C[C@](NC(=O)c3cccc4cnn(Cc5ccc(OC(F)(F)F)cc5)c34)(C1)C2 [Example 37, 2-(3-(1-(4-(trifluoromethoxy)benzyl)-1H-indazole-7-carboxamido)bicyclo[1.1.1]pentan-1-yl)acetic Acid]",75 nM

# Next, values leading:
row,IC50,SMILES
1,6 nM,"O=C(NC1CC2(C1)CC(C(=O)O)C2)c1ccnc2ccn(Cc3ccc(C(F)(F)F)cc3)c12 (racemic) [Example 9, rac-6-(1-(4-(trifluoromethyl)benzyl)-1H-pyrrolo[3,2-b]pyridine-7-carboxamido) spiro[3.3]heptane-2-carboxylic Acid]"
2,24 nM,"O=C(NC1CC2(C1)CC(C(=O)O)C2)c1nccc2ccn(Cc3ccc(C(F)(F)F)cc3)c12 (racemic) [Example 11, rac-6-(1-(4-(trifluoromethyl)benzyl)-1H-pyrrolo[2,3-c]pyridine-7-carboxamido)spiro[3.3]heptane-2-carboxylic Acid]"
3,2.7 nM,"O=C(NC1CC2(C1)CC(C(=O)O)C2)c1cccc2cnn(Cc3ccc(C(F)(F)F)cc3)c12 (racemic) [Example 12, rac-6-(1-(4-(trifluoromethyl)benzyl)-1H-indazole-7-carboxamido)spiro[3.3]heptane-2-carboxylic Acid]"
4,32 nM,"O=C(NC1CC2(C1)CC(C(=O)O)C2)c1cccc2ncn(Cc3ccc(C(F)(F)F)cc3)c12 (racemic) [Example 13, rac-6-(1-(4-(trifluoromethyl)benzyl)-1H-benzo[d]imidazole-7-carboxamido) spiro[3.3]heptane-2-carboxylic Acid]"
5,0.31 nM,"O=C(NC1CC2(C1)CC(C(=O)O)C2)c1cc(F)cc2ccn(Cc3ccc(C(F)(F)F)cc3)c12 (racemic) [Example 21, rac-6-(5-fluoro-1-(4-(trifluoromethyl)benzyl)-1H-indole-7-carboxamido)spiro heptane-2-carboxylic Acid]"
6,0.3 nM,"O=C(NC1CC2(C1)CC(C(=O)O)C2)c1c(F)ccc2ccn(Cc3ccc(C(F)(F)F)cc3)c12 (racemic) [Example 23, rac-6-(6-fluoro-1-(4-(trifluoromethyl)benzyl)-1H-indole-7-carboxamido)spiro heptane-2-carboxylic Acid]"
7,10 nM,"N#Cc1ccc(Cn2ccc3cccc(C(=O)NC4CC5(C4)CC(C(=O)O)C5)c32)cc1 (racemic) [Example 24, rac-6-(1-(4-cyanobenzyl)-1H-indole-7-carboxamido)spiro[3.3]heptane-2-carboxylic Acid]"
8,0.4 nM,"O=C(NC1CC2(C1)CC(C(=O)O)C2)c1cccc2ccn(Cc3ccc(C(F)F)cc3)c12 (racemic) [Example 25, rac-6-(1-(4-(difluoromethyl)benzyl)-1H-indole-7-carboxamido)spiro[3.3] heptane-2-carboxylic Acid]"
9,0.2 nM,"O=C(NC1CC2(C1)CC(C(=O)O)C2)c1cccc2ccn(Cc3ccc(S(F)(F)(F)(F)F)cc3)c12 (racemic) [Example 30, rac-6-(1-((4-(pentafluorothiol)phenyl)methyl)-1H-indole-7-carboxamido)spiro heptane-2-carboxylic Acid]"
10,0.03 nM,"O=C(NC1CC2(C1)CC(C(=O)O)C2)c1ccc(F)c2ccn(Cc3ccc(C(F)F)cc3)c12 (racemic) [Example 31, rac-6-(1-(4-(difluoromethyl)benzyl)-4-fluoro-1H-indole-7-carboxamido)spiro heptane-2-carboxylic Acid]"
11,13 nM,"N#Cc1ccc(Cn2ccc3cccc(C(=O)NC45CC(CC(=O)O)(C4)C5)c32)cc1 [Example 1, 2-(3-(1-(4-cyanobenzyl)-1H-indole-7-carboxamido)bicyclo[1.1.1]pentan-1-yl) acetic Acid]"
12,1.5 nM,"O=C(O)CC12CC(NC(=O)c3cccc4ccn(Cc5ccc(C(F)(F)F)cc5)c34)(C1)C2 [Example 2, 2-(3-(1-(4-(trifluoromethyl)benzyl)-1H-indole-7-carboxamido)bicyclo[1.1.1]pentan-1-yl)acetic Acid]"
13,400 nM,"CC1(NC(=O)c2cccc3ccn(Cc4ccc(C(F)(F)F)cc4)c23)CC(CCC(=O)O)C1 (stereo not drawn) [Example 15, cis-3-(3-methyl-3-(1-(4-(trifluoromethyl)benzyl)-1H-indole-7-carboxamido)cyclobutyl)propanoic Acid]"
14,3.8 nM,"O=C(O)CC12CCC(NC(=O)c3cccc4ccn(Cc5ccc(C(F)F)cc5)c34)(C1)C2 [Example 26, 2-(4-(1-(4-(difluoromethyl)benzyl)-1H-indole-7-carboxamido)bicyclo[2.1.1]hexan-1-yl)acetic Acid]"
